Assay results as given in patent US20170100489A1, “POLYETHYLENE GLYCOL-MODIFIED INTEGRIN BLOCKER HM-3 AND USE THEREOF” (HANMEI XU, priority 2012, published 2017).
Where two headings read alike, the source gives them in different places. Marks after values point to notes of the source that are not given here. Where no end group is shown, it is not given here. mPEG‑SC20k = methoxy polyethylene glycol-succinimidyl-carbonate, 20000 Da

What was measured:
[1] = test system: sarcoma HT-1080 xenograft tumors; test: Tumor growth inhibition, HT-1080 xenograft; conditions: 36.7 mg/kg
Experimental: Tumor diameter was measured with a vernier caliper. […] After administration, all mice were sacrificed. Stripped the tumors and weighed.

[2] = rat, in vivo, iv
Experimental: (§1) SD rats were randomly divided into six groups with the same number for male and female. Take three groups were administered intravenously integrin antagonist polypeptide with a high dose of 52 mg/kg (equivalent to HM-3 4.2 mg/kg), an intermediate dose of 26 mg/kg (equivalent to HM-3 2.1 mg/kg), a low-dose of 13 mg/kg (equivalent to HM-3 1.05 mg/kg). The other 3 groups were injected HM-3 with a high dose of 4.2 mg/kg, an intermediate dose of 2.1 mg/kg, a low doses of 1.05 mg/kg. Collected whole blood 0.5 ml once from the orbital venous plexus after 0.5 h, 1 h, 2 h, 3 h, 6 h, 12 h, 24 h, 48 h, 72 h, 96 h, 108 h, 132 h of drug administration, and applied heparin to get the effect of anti-coagulation. 12000 rpm/2 min centrifuged plasma. Draw supernatant 200 μl and 80° C. preheated PBS (0.05 M pH7.4) buffer 600 μl and mixed. Bath in the 80° C. water for 30 min. Centrifuged 2 min at 12000 rpm, and collected the supernatant, and stored in the condition of −20° C. Dissolved at room temperature, measured integrin antagonist peptide plasma concentration by ELISA.

[3] = test system: human nasopharyngeal cancer CNE xenograft tumors; test: Tumor growth inhibition, CNE xenograft; conditions: for Rate of inhibiting tumors / Tumor weight: Once 3 days
Experimental: (§2) Picked the tumor tissue of vigorous growth and was cut into pieces of about 1.5 mm^3. Under sterile conditions, the tumor tissue was inoculated subcutaneously on the right of nude mice. Tumor diameter was measured with a vernier caliper. The animals which had tumors with a size of 100-200 mm^3 were randomly divided into groups. The effect of polypeptide on anti-tumor was dynamically observed through the method of measuring tumor diameter. The times of measuring tumor diameter were once 2 days, and meantime, weighed mice. The mice in experimental group were infused polypeptide through tail vein, once 3 days. The mice in the placebo group were injected saline with the same volume. Tumor volume formula:
a, b respectively represent the length and width. According to the result of measurement, calculate the relative tumor volume. Evaluation of antitumor activity is relative tumor proliferation rate T/C(%). The formula is as follows: T/C(%)^−TRTV/CRTV×100%
TRTV: Treatment Group RTV; CRTV: Negative Control Group RTV

[4] = test system: human lung cancer H460 xenograft tumors; test: Tumor growth inhibition, H460 xenograft; conditions: for Rate of inhibiting tumors / Tumor weight: Once 3 days
Experimental: as §2
(§3) a, b respectively represent the length and width. According to the result of measurement, calculate the relative tumor volume. Evaluation of antitumor activity is relative tumor proliferation rate T/C(%). The formula is as follows: T/C(%)^=TRTV/CRTV×100%
(§4) TRTV: Treatment group RTV; CRTV: negative control group RTV

[5] = test system: human endometrial cancer HHUA xenograft tumors; test: Tumor growth inhibition, HHUA xenograft; conditions: for Rate of inhibiting tumors / Tumor weight: Once 3 days
Experimental: Human endometrial cancer HHUA cell lines in logarithmic growth phase were picked, and made into 5×10^7/ml cell suspension of under sterile conditions, and then 0.1 ml suspension was inoculated subcutaneously at the right armpit of nude mice. Tumor diameter was measured with a vernier caliper. The animals which had tumors with a size of 100-200 mm^3 were randomly divided into groups. The effect of polypeptide on anti-tumor was dynamically observed through the method of measuring tumor diameter. The times of measuring tumor diameter were once 2 days, and meantime, weighed mice. The mice in experimental group were infused polypeptide through tail vein. The mice in the placebo group were injected saline with the same volume, once 1 day; Taxol group: 10 mg/kg, once 1 week; Endostar group: 2.5 mg/kg, once 1 day; The groups of high, intermediate and low polypeptide: 6, 3, 1.5 mg/kg, respectively, once 1 day. After administration, all mice were sacrificed. Stripped the tumors and weighed.

[6] = test system: human colon cancer HT-29 xenograft tumors; test: Tumor growth inhibition, HT-29 xenograft; conditions: for Rate of inhibiting tumors / Tumor weight: Once 3 days
Experimental: Human colon cancer HT-29 cell lines in logarithmic growth phase were picked, and made into 5×10^7/ml cell suspension of under sterile conditions, and then 0.1 ml suspension was inoculated subcutaneously at the right armpit of nude mice. Tumor diameter was measured with a vernier caliper. The animals which had tumors with a size of 100-200 mm^3 were randomly divided into groups. The effect of polypeptide on anti-tumor was dynamically observed through the method of measuring tumor diameter. The times of measuring tumor diameter were once 2 days, and meantime, weighed mice. The mice in experimental group were infused polypeptide through tail vein. The mice in the placebo group were injected saline with the same volume, once 1 day; Taxol group: 10 mg/kg, once 1 week; Endostar group: 2.5 mg/kg, once 1 day; The groups of high, intermediate and low polypeptide: 6, 3, 1.5 mg/kg, respectively, once 1 day. After administration, all mice were sacrificed. Stripped the tumors and weighed.

[7] = test system: human gastric cancer MGC803 xenograft tumors; test: Tumor growth inhibition, MGC803 xenograft; conditions: for Rate of inhibiting tumors / Tumor weight: Once 3 days
Experimental: as §2, §3, §4

[8] = test system: human gallbladder cancer GBC-SD xenograft tumors; test: Tumor growth inhibition, GBC-SD xenograft; conditions: for Rate of inhibiting tumors / Tumor weight: Once 3 day
Experimental: Human gallbladder cancer GBC-SD cell lines in logarithmic growth phase were picked and made into 5×10^7/ml cell suspension of under sterile conditions, and then 0.1 ml suspension was inoculated subcutaneously at the right armpit of nude mice. Tumor diameter was measured with a vernier caliper. The animals which had tumors with a size of 100-200 mm^3 were randomly divided into groups. The effect of polypeptide on anti-tumor was dynamically observed through the method of measuring tumor diameter. The times of measuring tumor diameter were once 2 days, and meantime, weighed mice. The mice in experimental group were infused polypeptide through tail vein. The mice in the placebo group were injected saline with the same volume, once 1 day; Taxol group: 10 mg/kg, once 1 week; Endostar group: 2.5 mg/kg, once 1 day; The groups of high, intermediate and low polypeptide: 6, 3, 1.5 mg/kg, respectively, once 1 day. After administration, all mice were sacrificed. Stripped the tumors and weighed.

[9] = Pharmacokinetics of mPEG-SC20k-HM-3 and HM-3 in rats (plasma concentration by ELISA); conditions: SD rats, intravenous
Experimental: as §1

[10] = high, 36.7 mg/kg, listed as polypeptide
[11] = low, 9.38 mg/kg, listed as polypeptide
[12] = intermediate, 18.75 mg/kg, listed as polypeptide

## mPEG-SC20k-Ile-Val-Arg-Arg-Ala-Asp-Arg-Ala-Ala-Val-Pro-Gly-Gly-Gly-Gly-Arg-Gly-Asp ({mPEG‑SC20k}-IVRRADRAAVPGGGGRGD) [mPEG-SC20k-HM-3]
[1]; Once 3 days
  Rate of inhibiting tumors: 65.04%*
  Tumor weight: 0.678 g
[1]; Once 3 days, listed as polypeptide
  Rate of inhibiting tumors: 65.04%
[1]; P<0.05
  inhibition of tumor growth compared with negative control: significant inhibition role
[2]; both, SD
  t1/2β: 20.13 h
[2]
  t1/2p: 20.13 h
  t1/2β: 20.13 h
[3]; 36.7 mg/kg, P<0.05
  inhibition of tumor growth compared with negative control: significant inhibition role
[3]; 36.7 mg/kg, compared with positive cisplatin group
  toxic and side effects: no obvious toxic and side effects
[3]; high, 36.7 mg/kg
  Rate of inhibiting tumors: 68.22%*
  Tumor weight: 0.382 g
[3]; [10]
  Rate of inhibiting tumors: 68.22%
[3]; intermediate, 18.75 mg/kg
  Rate of inhibiting tumors: 66.19%
  Tumor weight: 0.406 g
[3]; low, 9.38 mg/kg
  Rate of inhibiting tumors: 55.32%
  Tumor weight: 0.537 g
[3]; [11]
  Rate of inhibiting tumors: 55.32%
[4]; 36.7 mg/kg, P<0.05
  inhibition of tumor growth compared with negative control: significant inhibition role
[4]; high, 36.7 mg/kg
  Rate of inhibiting tumors: 66.45%*
  Tumor weight: 0.266 g
[4]; [10]
  Rate of inhibiting tumors: 66.45%
[4]; intermediate, 18.75 mg/kg
  Rate of inhibiting tumors: 55.37%
  Tumor weight: 0.354 g
[4]; [12]
  Rate of inhibiting tumors: 55.37%
[4]; low, 9.38 mg/kg
  Rate of inhibiting tumors: 54.28%
  Tumor weight: 0.363 g
[4]; [11]
  Rate of inhibiting tumors: 54.28%
[5]; 36.7 mg/kg, P<0.05
  inhibition of tumor growth compared with negative control: significant inhibition role
[5]; high, 36.7 mg/kg
  Rate of inhibiting tumors: 62.47%*
  Tumor weight: 0.453 g
[5]; [10]
  Rate of inhibiting tumors: 62.47%
[5]; intermediate, 18.75 mg/kg
  Rate of inhibiting tumors: 53.65%
  Tumor weight: 0.560 g
[5]; [12]
  Rate of inhibiting tumors: 53.65%
[5]; low, 9.38 mg/kg
  Rate of inhibiting tumors: 51.38%
  Tumor weight: 0.587 g
[5]; [11]
  Rate of inhibiting tumors: 51.38%
[6]; 36.7 mg/kg, P<0.05
  inhibition of tumor growth compared with negative control: significant inhibition role
[6]; high, 36.7 mg/kg
  Rate of inhibiting tumors: 55.98%*
  Tumor weight: 0.493 g
[6]; [10]
  Rate of inhibiting tumors: 55.98%
[6]; intermediate, 18.75 mg/kg
  Rate of inhibiting tumors: 45.45%
  Tumor weight: 0.611 g
[6]; [12]
  Rate of inhibiting tumors: 45.45%
[6]; low, 9.38 mg/kg
  Rate of inhibiting tumors: 37.05%
  Tumor weight: 0.705 g
[6]; [11]
  Rate of inhibiting tumors: 37.05%
[7]; 36.7 mg/kg, P<0.05
  inhibition of tumor growth compared with negative control: significant inhibition role
[7]; high, 36.7 mg/kg
  Rate of inhibiting tumors: 73.42%*
  Tumor weight: 0.192 g
[7]; [10]
  Rate of inhibiting tumors: 73.42%
[7]; intermediate, 18.75 mg/kg
  Rate of inhibiting tumors: 69.86%
  Tumor weight: 0.218 g
[7]; [12]
  Rate of inhibiting tumors: 69.86%
[7]; low, 9.38 mg/kg
  Rate of inhibiting tumors: 59.57%
  Tumor weight: 0.292 g
[7]; [11]
  Rate of inhibiting tumors: 59.57%
[8]; 36.7 mg/kg, P<0.05
  inhibition of tumor growth compared with negative control: significant inhibition role
[8]; high, 36.7 mg/kg
  Rate of inhibiting tumors: 61.45%*
  Tumor weight: 0.409 g
[8]; [10]
  Rate of inhibiting tumors: 61.45%
[8]; intermediate, 18.75 mg/kg
  Rate of inhibiting tumors: 50.59%
  Tumor weight: 0.524 g
[8]; [12]
  Rate of inhibiting tumors: 50.59%
[8]; low, 9.38 mg/kg
  Rate of inhibiting tumors: 40.32%
  Tumor weight: 0.633 g
[8]; [11]
  Rate of inhibiting tumors: 40.32%
[9]
  CL: 0.118 mL/min/kg
